Tested on: T lymphocytes
Test: T-cell proliferation assay (tritiated thymidine incorporation, ionomycin + PMA stimulation)
Assay type: cell-based, C57B1/6 mice
Details: T-lymphocyte
Procedure: Purified compound, or fractions, prepared by HPLC, was dissolved in absolute ethanol at a final concentration of 100 µg/ml.
Spleens from C57B1/6 mice were taken under sterile conditions and gently dissociated in ice-cold RPMI 1640 culture medium (GIBCO, Grand Island, N. Y.) supplemented with 10% heat-inactivated fetal calf serum (GIBCO). Cells were pelleted by centrifugation at 1500 rpm for 8 minutes. Contaminating red cells were removed by treating the pellet with ammonium chloride lysing buffer (GIBCO) for 2 minutes at 4°C. Cold medium was added and cells were again centrifuged at 1500 rpm for 8 minutes. T lymphocytes were then isolated by separation of the cell suspension on nylon wool columns as follows: Nylon wool columns were prepared by packing approximately 4 grams of washed and dried nylon wool into 20 ml plastic syringes. The columns were sterilized by autoclaving at 250°F for 30 minutes. Nylon wool columns were wetted with warm (37°C) culture medium and rinsed with the same medium. Washed spleen cells resuspended in warm medium were slowly applied to the nylon wool. The columns were then incubated in an upright position at 37°C for 1 hour. Non-adherent T lymphocytes were eluted from the columns with warm culture medium and the cell suspensions were spun as above.
Purified T lymphocytes were resuspended at […] in complete culture medium composed of RPMI 1640 medium with 10% heat-inactivated fetal calf serum, […], 1mM sodium pyruvate, 2 x 10⁻⁵M 2-mercaptoethanol and 50 µg/ml gentamycin. Ionomycin was added at 250 ng/ml and PMA at 10 ng/ml. The cell suspension was immediately distributed into 96 well flat-bottom microculture plates (Costar) at 200 µl/well. The control, being the medium without test drug, and various below-indicated dilutions of the sample (above-described purified prolylimmunomycin) to be tested were then added in triplicate wells at 20 µl/well. FK-520 was used as a standard. The culture plates were then incubated at 37°C in a humidified atmosphere of 5% CO₂-95% air for 44 hours. The proliferation of T lymphocytes was assessed by measurement of tritiated thymidine incorporation. After 44 hours of culturing, the cells were pulse-labelled with 2 µCi/well of tritiated thymidine (NEN, Cambridge, MA). After another 4 hours of incubation, cultures were harvested on glass fiber filters using a multiple sample harvester. Radioactivity of filter discs corresponding to individual wells as measured by standard liquid scintillation counting methods (Betacounter). Mean counts per minute of replicate wells were calculated and the results expressed as percent inhibition of tritiated thymidine uptake (profileration) as follows: Inhibition = 100 -(Mean cpm sample tested X 100.)/(Mean cpm control medium) [formula]

SMILES | inhibition at 0.004 µg/mL (Mus musculus, 4 ng/ml, standard) [%] | inhibition at 0.0019 µg/mL (1.9 ng/ml, mouse T cell cultures pulsed with 3H-thymidine for 4 hours prior to harvesting at 48 hours) [%] | inhibition at 0.0039 µg/mL (3.9 ng/ml, mouse T cell cultures pulsed with 3H-thymidine for 4 hours prior to harvesting at 48 hours) [%] | inhibition at 0.0078 µg/mL (7.8 ng/ml, mouse T cell cultures pulsed with 3H-thymidine for 4 hours prior to harvesting at 48 hours) [%] | inhibition at 0.0155 µg/mL (15.5 ng/ml, mouse T cell cultures pulsed with 3H-thymidine for 4 hours prior to harvesting at 48 hours) [%] | inhibition at 0.031 µg/mL (31.0 ng/ml, mouse T cell cultures pulsed with 3H-thymidine for 4 hours prior to harvesting at 48 hours) [%] | inhibition at 0.062 µg/mL (62.0 ng/ml, mouse T cell cultures pulsed with 3H-thymidine for 4 hours prior to harvesting at 48 hours) [%]
CC[C@@H]1/C=C(\C)C[C@H](C)C[C@H](OC)[C@H]2O[C@@](O)(C(=O)C(=O)N3CCCC[C@H]3C(=O)O[C@H](/C(C)=C/[C@@H]3CC[C@@H](O)[C@H](OC)C3)[C@H](C)[C@@H](O)CC1=O)[C@H](C)C[C@@H]2OC [FK-520, immunomycin] | 99 | – | – | – | – | – | –
CC[C@@H]1/C=C(\C)C[C@H](C)C[C@H](OC)[C@H]2O[C@@](O)(C(=O)C(=O)N3CCC[C@H]3C(=O)O[C@H](/C(C)=C/[C@@H]3CC[C@@H](O)[C@H](OC)C3)[C@H](C)[C@@H](O)CC1=O)[C@H](C)C[C@@H]2OC [Prolyl-Immunomycin, prolyl-immunomycin] | – | 8.2 | 47 | 84.8 | 94.3 | 96.3 | 97.8

Source: patent EP0478235A2, “A directed biosynthesis for an immunomycin derivative” (MERCK & CO. INC., priority 1990, dated 1992)
